What was measured:
Test in all cases: Kinase Profiling (KINOMEscan)
Type in all cases: binding
[1] = molecular target: 456 kinases (of these 395 non-mutant kinases) (Homo sapiens, UniProt O00506); settings: YSK1; 10 μM
[2] = molecular target: 456 kinases (of these 395 non-mutant kinases) (Homo sapiens, UniProt O14965); settings: AURKA; 10 μM
[3] = molecular target: 456 kinases (of these 395 non-mutant kinases) (Homo sapiens, UniProt O60674); settings: JAK2(JH1domain-catalytic); 10 μM
[4] = molecular target: 456 kinases (of these 395 non-mutant kinases) (Homo sapiens, UniProt O75582); settings: 10 μM
[5] = molecular target: 456 kinases (of these 395 non-mutant kinases) (Homo sapiens, UniProt O75716); settings: STK16; 10 μM
[6] = molecular target: 456 kinases (of these 395 non-mutant kinases) (Homo sapiens, UniProt P00533, G719C); settings: EGFR(G719C); 10 μM
[7] = molecular target: 456 kinases (of these 395 non-mutant kinases) (Homo sapiens, UniProt P17948); settings: FLT1; 10 μM
[8] = molecular target: 456 kinases (of these 395 non-mutant kinases) (Homo sapiens, UniProt P22455); settings: FGFR4; 10 μM
[9] = molecular target: 456 kinases (of these 395 non-mutant kinases) (Homo sapiens, UniProt P27037); settings: ACVR2A; 10 μM
[10] = molecular target: 456 kinases (of these 395 non-mutant kinases) (Homo sapiens, UniProt P36507); settings: MEK2; 10 μM
[11] = molecular target: 456 kinases (of these 395 non-mutant kinases) (Homo sapiens, UniProt P42679); settings: CTK; 10 μM
[12] = molecular target: 456 kinases (of these 395 non-mutant kinases) (Homo sapiens, UniProt P43405); settings: SYK; 10 μM
[13] = molecular target: 456 kinases (of these 395 non-mutant kinases) (Homo sapiens, UniProt P45984); settings: JNK2; 10 μM
[14] = molecular target: 456 kinases (of these 395 non-mutant kinases) (Homo sapiens, UniProt P49761); settings: CLK3; 10 μM
[15] = molecular target: 456 kinases (of these 395 non-mutant kinases) (Homo sapiens, UniProt P53779); settings: JNK3; 10 μM
[16] = molecular target: 456 kinases (of these 395 non-mutant kinases) (Homo sapiens, UniProt P68400); settings: CSNK2A1; 10 μM
[17] = molecular target: 456 kinases (of these 395 non-mutant kinases) (Homo sapiens, UniProt Q02750); settings: MEK1; 10 μM
[18] = molecular target: 456 kinases (of these 395 non-mutant kinases) (Homo sapiens, UniProt Q04912); settings: MST1R; 10 μM
[19] = molecular target: 456 kinases (of these 395 non-mutant kinases) (Homo sapiens, UniProt Q13163); settings: MEK5; 10 μM
[20] = molecular target: 456 kinases (of these 395 non-mutant kinases) (Homo sapiens, UniProt Q13470); settings: TNK1; 10 μM
[21] = molecular target: 456 kinases (of these 395 non-mutant kinases) (Homo sapiens, UniProt Q52WX2); settings: SBK1; 10 μM
[22] = molecular target: 456 kinases (of these 395 non-mutant kinases) (Homo sapiens, UniProt Q6DT37); settings: DMPK2; 10 μM
[23] = molecular target: 456 kinases (of these 395 non-mutant kinases) (Homo sapiens, UniProt Q8IVW4); settings: CDKL3; 10 μM
[24] = molecular target: 456 kinases (of these 395 non-mutant kinases) (Homo sapiens, UniProt Q8NFD2); settings: ANKK1; 10 μM
[25] = molecular target: 456 kinases (of these 395 non-mutant kinases) (Homo sapiens, UniProt Q8WU08); settings: YANK1; 10 μM
[26] = molecular target: 456 kinases (of these 395 non-mutant kinases) (Homo sapiens, UniProt Q96D53); settings: ADCK4; 10 μM
[27] = molecular target: 456 kinases (of these 395 non-mutant kinases) (Homo sapiens, UniProt Q99558); settings: NIK; 10 μM
[28] = molecular target: 456 kinases (of these 395 non-mutant kinases) (Homo sapiens, UniProt Q9BXA7); settings: TSSK1B; 10 μM
[29] = molecular target: 456 kinases (of these 395 non-mutant kinases) (Homo sapiens, UniProt Q9C098); settings: DCAMKL3; 10 μM
[30] = molecular target: 456 kinases (of these 395 non-mutant kinases) (Homo sapiens, UniProt Q9H4A3); settings: WNK1; 10 μM
[31] = molecular target: 456 kinases (of these 395 non-mutant kinases) (Homo sapiens, UniProt Q9UKI8); settings: TLK1; 10 μM
[32] = molecular target: 456 kinases (of these 395 non-mutant kinases) (Homo sapiens, UniProt Q9Y6M4); settings: CSNK1G3; 10 μM

456 kinases (of these 395 non-mutant kinases) (Homo sapiens, UniProt P27037), sequence (P27037 20-513 limits assumed, change not shown): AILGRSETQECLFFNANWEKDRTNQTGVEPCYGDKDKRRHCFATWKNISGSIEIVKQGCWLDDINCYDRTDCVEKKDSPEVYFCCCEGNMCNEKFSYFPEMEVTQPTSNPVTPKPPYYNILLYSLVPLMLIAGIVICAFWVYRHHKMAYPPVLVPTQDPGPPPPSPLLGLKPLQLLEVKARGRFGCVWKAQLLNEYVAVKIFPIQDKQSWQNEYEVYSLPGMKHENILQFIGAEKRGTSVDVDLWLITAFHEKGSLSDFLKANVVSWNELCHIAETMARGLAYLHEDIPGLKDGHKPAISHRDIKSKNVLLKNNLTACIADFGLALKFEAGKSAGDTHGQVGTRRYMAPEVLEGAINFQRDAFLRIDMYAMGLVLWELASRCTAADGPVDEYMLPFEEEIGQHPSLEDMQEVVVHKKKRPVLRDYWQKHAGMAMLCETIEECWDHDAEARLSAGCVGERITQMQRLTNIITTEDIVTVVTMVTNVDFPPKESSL
456 kinases (of these 395 non-mutant kinases) (Homo sapiens, UniProt P17948), sequence (P17948 27-1338 limits assumed, change not shown): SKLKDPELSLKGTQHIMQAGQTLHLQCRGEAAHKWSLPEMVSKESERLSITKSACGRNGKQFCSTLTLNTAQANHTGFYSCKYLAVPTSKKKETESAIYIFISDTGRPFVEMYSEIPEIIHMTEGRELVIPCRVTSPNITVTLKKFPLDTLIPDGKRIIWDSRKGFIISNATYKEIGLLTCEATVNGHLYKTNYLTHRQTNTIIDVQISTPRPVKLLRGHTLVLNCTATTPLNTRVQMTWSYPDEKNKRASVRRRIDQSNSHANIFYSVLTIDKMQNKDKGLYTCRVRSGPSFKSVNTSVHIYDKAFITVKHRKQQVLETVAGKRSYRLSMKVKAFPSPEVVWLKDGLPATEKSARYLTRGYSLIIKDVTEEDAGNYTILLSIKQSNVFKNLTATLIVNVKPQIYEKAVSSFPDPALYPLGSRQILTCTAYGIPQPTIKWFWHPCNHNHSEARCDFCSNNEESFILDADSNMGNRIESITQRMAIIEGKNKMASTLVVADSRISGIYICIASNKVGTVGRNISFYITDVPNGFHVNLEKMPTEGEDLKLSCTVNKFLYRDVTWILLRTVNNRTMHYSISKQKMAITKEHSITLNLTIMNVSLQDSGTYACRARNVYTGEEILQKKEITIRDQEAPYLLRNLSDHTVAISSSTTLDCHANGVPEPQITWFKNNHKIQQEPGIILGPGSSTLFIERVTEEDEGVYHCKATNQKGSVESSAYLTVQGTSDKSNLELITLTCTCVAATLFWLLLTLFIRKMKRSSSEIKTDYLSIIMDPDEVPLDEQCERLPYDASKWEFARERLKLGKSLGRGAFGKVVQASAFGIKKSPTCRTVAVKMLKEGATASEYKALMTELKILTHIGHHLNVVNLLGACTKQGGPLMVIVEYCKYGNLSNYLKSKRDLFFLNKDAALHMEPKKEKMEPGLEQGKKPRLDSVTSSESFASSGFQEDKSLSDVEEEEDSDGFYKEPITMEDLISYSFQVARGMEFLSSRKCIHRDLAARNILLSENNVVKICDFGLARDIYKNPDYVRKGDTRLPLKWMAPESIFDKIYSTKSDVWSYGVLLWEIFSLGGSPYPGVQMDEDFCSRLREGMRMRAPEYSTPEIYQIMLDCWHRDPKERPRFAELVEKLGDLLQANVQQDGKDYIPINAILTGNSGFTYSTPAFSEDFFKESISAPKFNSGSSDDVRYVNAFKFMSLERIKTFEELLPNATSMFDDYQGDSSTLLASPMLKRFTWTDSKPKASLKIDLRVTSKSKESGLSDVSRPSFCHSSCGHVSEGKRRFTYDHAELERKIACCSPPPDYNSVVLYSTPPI
456 kinases (of these 395 non-mutant kinases) (Homo sapiens, UniProt P22455), sequence (P22455 22-802 limits assumed, change not shown): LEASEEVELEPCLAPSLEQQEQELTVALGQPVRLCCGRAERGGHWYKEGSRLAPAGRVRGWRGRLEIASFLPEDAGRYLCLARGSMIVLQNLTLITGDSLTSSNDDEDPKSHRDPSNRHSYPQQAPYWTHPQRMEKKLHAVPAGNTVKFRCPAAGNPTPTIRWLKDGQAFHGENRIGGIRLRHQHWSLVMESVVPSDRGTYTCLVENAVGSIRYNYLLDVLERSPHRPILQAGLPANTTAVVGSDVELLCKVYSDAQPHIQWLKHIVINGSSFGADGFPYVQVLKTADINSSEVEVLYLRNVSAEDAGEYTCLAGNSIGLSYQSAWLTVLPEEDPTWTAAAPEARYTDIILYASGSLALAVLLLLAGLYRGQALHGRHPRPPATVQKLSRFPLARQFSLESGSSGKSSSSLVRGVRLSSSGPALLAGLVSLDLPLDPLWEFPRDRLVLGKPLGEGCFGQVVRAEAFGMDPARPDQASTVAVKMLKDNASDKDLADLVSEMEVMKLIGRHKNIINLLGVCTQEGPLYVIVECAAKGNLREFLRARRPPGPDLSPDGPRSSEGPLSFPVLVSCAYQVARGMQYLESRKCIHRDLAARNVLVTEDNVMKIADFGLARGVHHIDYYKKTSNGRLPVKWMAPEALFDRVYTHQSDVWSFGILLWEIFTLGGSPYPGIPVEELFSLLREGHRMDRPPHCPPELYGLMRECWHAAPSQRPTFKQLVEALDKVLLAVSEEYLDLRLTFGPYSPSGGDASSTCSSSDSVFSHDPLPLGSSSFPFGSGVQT
456 kinases (of these 395 non-mutant kinases) (Homo sapiens, UniProt Q8WU08), sequence (Q8WU08 2-396 limits assumed, change not shown): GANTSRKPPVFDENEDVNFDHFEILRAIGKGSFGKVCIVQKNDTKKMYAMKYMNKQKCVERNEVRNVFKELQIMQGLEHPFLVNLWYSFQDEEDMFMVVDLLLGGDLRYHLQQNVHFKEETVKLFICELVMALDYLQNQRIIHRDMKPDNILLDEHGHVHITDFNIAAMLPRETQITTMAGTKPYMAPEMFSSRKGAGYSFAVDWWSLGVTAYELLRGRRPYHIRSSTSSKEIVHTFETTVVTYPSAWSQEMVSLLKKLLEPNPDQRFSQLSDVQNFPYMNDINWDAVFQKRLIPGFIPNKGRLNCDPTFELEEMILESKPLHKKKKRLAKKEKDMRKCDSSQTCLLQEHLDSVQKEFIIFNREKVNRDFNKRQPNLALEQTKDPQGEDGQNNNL
456 kinases (of these 395 non-mutant kinases) (Homo sapiens, UniProt O75716), sequence (O75716 2-305 limits assumed, stated change not applied): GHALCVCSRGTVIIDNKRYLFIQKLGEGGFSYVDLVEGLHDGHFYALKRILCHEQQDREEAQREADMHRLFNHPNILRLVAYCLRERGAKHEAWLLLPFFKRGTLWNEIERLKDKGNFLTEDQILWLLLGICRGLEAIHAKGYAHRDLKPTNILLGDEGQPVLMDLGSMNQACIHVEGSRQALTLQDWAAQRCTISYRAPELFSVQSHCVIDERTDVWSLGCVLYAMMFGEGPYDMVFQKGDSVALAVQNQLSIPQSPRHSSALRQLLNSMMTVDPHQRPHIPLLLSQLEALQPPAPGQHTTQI

## CCc1ccccc1NC(=O)c1c(C)nsc1Nc1cnc2cc(F)ccc2n1 [Example 20, N-(2-Ethylphenyl)-5-[(6-fluoroquinoxalin-2-yl)amino]-3-methyl-1,2-thiazole-4-carboxamide]
[1]
  % Ctrl @ 10 μM: 100 % Ctrl
[2]
  % Ctrl @ 10 μM: 100 % Ctrl
[3]
  % Ctrl @ 10 μM: 100 % Ctrl
[4]; RPS6KA5(Kin.Dom.1-N-terminal)
  % Ctrl @ 10 μM: 100 % Ctrl
[4]; RPS6KA5(Kin.Dom.2-C-terminal)
  % Ctrl @ 10 μM: 100 % Ctrl
[5]
  % Ctrl @ 10 μM: 100 % Ctrl
[6]
  % Ctrl @ 10 μM: 95 % Ctrl
[7]
  % Ctrl @ 10 μM: 74 % Ctrl
[8]
  % Ctrl @ 10 μM: 77 % Ctrl
[9]
  % Ctrl @ 10 μM: 94 % Ctrl
[10]
  % Ctrl @ 10 μM: 100 % Ctrl
[11]
  % Ctrl @ 10 μM: 61 % Ctrl
[12]
  % Ctrl @ 10 μM: 90 % Ctrl
[13]
  % Ctrl @ 10 μM: 100 % Ctrl
[14]
  % Ctrl @ 10 μM: 74 % Ctrl
[15]
  % Ctrl @ 10 μM: 100 % Ctrl
[16]
  % Ctrl @ 10 μM: 85 % Ctrl
[17]
  % Ctrl @ 10 μM: 97 % Ctrl
[18]
  % Ctrl @ 10 μM: 100 % Ctrl
[19]
  % Ctrl @ 10 μM: 100 % Ctrl
[20]
  % Ctrl @ 10 μM: 86 % Ctrl
[21]
  % Ctrl @ 10 μM: 91 % Ctrl
[22]
  % Ctrl @ 10 μM: 79 % Ctrl
[23]
  % Ctrl @ 10 μM: 66 % Ctrl
[24]
  % Ctrl @ 10 μM: 100 % Ctrl
[25]
  % Ctrl @ 10 μM: 100 % Ctrl
[26]
  % Ctrl @ 10 μM: 100 % Ctrl
[27]
  % Ctrl @ 10 μM: 96 % Ctrl
[28]
  % Ctrl @ 10 μM: 100 % Ctrl
[29]
  % Ctrl @ 10 μM: 100 % Ctrl
[30]
  % Ctrl @ 10 μM: 100 % Ctrl
[31]
  % Ctrl @ 10 μM: 84 % Ctrl
[32]
  % Ctrl @ 10 μM: 70 % Ctrl

Source: patent US9682995B2, “Amino-substituted isothiazoles” (BAYER PHARMA AKTIENGESELLSCHAFT, priority 2013, dated 2017)
